From publication PMC7024211, “Antifouling Napyradiomycins from Marine-Derived Actinomycetes Streptomyces aculeolatus” (Marine Drugs, 2020)

Columns and labels:
P. inhibens = test: Biofilm inhibition assay (crystal violet); assay type: cell-based, Phaeobacter inhibens; conditions: 31.25 µg/mL
Experimental: (§1) In a 96-well plate, biofilm grown cultures of M. hydrocarbonoclasticus and C. marina were incubated with napyradiomycins (1–12) at a concentration of 31.25 µg/mL. After discarding the media, biofilm inhibition was determined from OD600 measurements of crystal violet stained cells resuspended from the plate bottom with acetic acid.
(§2) Five marine bacterial species were used as models to assess antimicrofouling activity. The biofilm-forming marine bacteria Marinobacter hydrocarbonoclasticus DSM 8798 (ATCC 49840), Cobetia marina DSM 4741, Phaeobacter inhibens DSM 17,395, and Pseusooceanicola batsensis DSM 15,984 were obtained from DSMZ (Leibniz Institute DSMZ—German collection of Microorganisms and Cell Cultures) and Micrococcus luteus. Cultures were routinely grown in liquid marine broth (Carl Roth GmbH, Karlsruhe, Germany) with agitation (180 rpm) or on agar-supplemented marine broth, at 28 °C (M. hydrocarbonoclasticus and C. marina) or 30 °C (P. inhibens and P. batsensis). M. luteus was maintained in Brain Heart Infusion broth (BHI, Becton Dickinson, GmbH, Heidelberg, Germany) with agitation (180 rpm) or on agar-supplemented BHI, at 37 °C.
(§3) The antibiofilm activity of napyradiomycins (1–12) against the five marine bacterial species was assessed in 96-well polystyrene flat bottom microplates (Nunclon Delta Surface, Thermo Scientific, Roskilde, Denmark) as previously reported. For initial screening, bacterial overnight cultures were diluted to an optical density (OD600nm) value of 0.2 and incubated statically at 28 °C (M. hydrocarbonoclasticus, C. marina), 30 °C (P. inhibens, P. batsensis) or 37 °C (M. luteus) in the 96-well microplate in the presence or absence of 31.25 µg/mL of napyradiomycins, solubilized in DMSO. After 24 h (M. hydrocarbonoclasticus, C. marina) or 48 h (P. batsensis, P. inhibens, M. luteus) incubation, the OD600nm was determined. The planktonic cells and media were discarded, and the wells were washed twice with deionized water. The biofilm was fixed for 1 h at 60 °C and stained with crystal violet 0.06% for 10 min. The dye was discarded, and the wells were again washed twice with deionized water. The stained biofilm was solubilized with 30% acetic acid and the OD600nm was determined. […] The percentage of biofilm inhibition was calculated as the amount of biofilm relative to that of the bacterial species without added compounds (with the same amount of DMSO added). CuSO4 (5 μM), a potent antifouling agent used in antifouling paints, was used as reference.
All assays were performed in triplicate, and results are representative of the average and standard error of the mean (SEM). […]

C. marina [1] = test: Biofilm inhibition assay (crystal violet); assay type: cell-based, Cobetia marina; conditions: 31.25 µg/mL
Experimental: as §1, §2, §3
(§4) All assays were performed in triplicate, and results are representative of the average and standard error of the mean (SEM). Statistical analysis was performed in GraphPad Prism 8.0.2, using one-way ANOVA followed by a Dunnett’s multiple comparisons test against the control (species grown with the same amount of DMSO added).

M. hydrocarbonoclasticus = test: Biofilm inhibition assay (crystal violet); assay type: cell-based, Marinobacter hydrocarbonoclasticus; conditions: 31.25 µg/mL
Experimental: as §1, §2, §3, §4

P. batsensis [2] = test: Bacterial growth inhibition assay (OD600nm); assay type: cell-based, Pseudooceanicola batsensis
Experimental: As a first screening approach, liquid cultures of M. hydrocarbonoclasticus, and C. marina in a 96-well format were analyzed for bacterial growth inhibition by percent decrease in OD600 after incubation with napyradiomycins (1–12) at 31.25 µg/mL.
as §2
(§5) The antibacterial activity of the napyradiomycins (1–12) was assessed in 96-well polystyrene flat bottom microplates (Nunclon Delta Surface, Thermo Scientific, Roskilde, Denmark) following previously reported procedures. For initial screening, bacterial overnight cultures were diluted to an optical density (OD600nm) of 0.2 and incubated statically at 28 °C (M. hydrocarbonoclasticus, C. marina), 30 °C (P. inhibens, P. batsensis) or 37 °C (M. luteus) in a 96-well microplate in the presence or absence of 31.25 µg/mL of the napyradiomycins, solubilized in DMSO. After 24 h (M. hydrocarbonoclasticus, C. marina) or 48 h (P. batsensis, P. inhibens, M. luteus) incubation, the OD600nm was determined (Molecular Devices, Spectra Max 190). […] The percentage of growth inhibition was calculated as the amount of growth relative to that of the bacterial species without added compounds (with the same amount of DMSO added). CuSO4 (5 μM), a potent antifouling agent used in antifouling paints, was used as reference.
(§6) All assays were performed in triplicate, and results are representative of the average and standard error of the mean (SEM). Statistical analysis was performed in GraphPad Prism 8.0.2 (San Diego, CA, USA), using one-way ANOVA followed by a Dunnett’s multiple comparisons test against the control (species grown with the same amount of DMSO added).

C. marina [3] = test: Bacterial growth inhibition assay (OD600nm); assay type: cell-based, Cobetia marina
Source text: as §2
as §5, with “For initial screening, bacterial overnight cultures were diluted to an optical density (OD600nm) of 0.2 and incubated statically at 28 °C (M. hydrocarbonoclasticus, C. marina), 30 °C (P. inhibens, P. batsensis) or 37 °C (M. luteus) in a 96-well microplate in the presence or absence of 31.25 µg/mL of the napyradiomycins, solubilized in DMSO.” left out
as §6

P. batsensis [4] = test: Biofilm inhibition assay (crystal violet); assay type: cell-based, Pseudooceanicola batsensis; conditions: Pseudooceanicola batsensis
Experimental: as §1, §2, §3, §4

M. luteus = test: Biofilm inhibition assay (crystal violet); assay type: cell-based, Micrococcus luteus
Experimental: as §1, §2, §3, §4

In the case of `CC(C)=CCCC(C)=CCC12OC(C)(C)C(Cl)CC1(Cl)C(=O)c1c(O)cc(O)cc1C2=O` (stereo not shown) [Napyradiomycin 1, napyradiomycin A1], the “% Biofilm Inhibition ± SEM P. inhibens” value (P. inhibens) is reported as “N.I”, the “% Biofilm Inhibition ± SEM C. marina” value (C. marina [1]) is reported as “N.I” and the “% Biofilm Inhibition ± SEM M. hydrocarbonoclasticus” value (M. hydrocarbonoclasticus) is reported as “N.I”. For the same compound, the “% growth inhibition P. batsensis” value (P. batsensis [2]; 0.98 µg/mL) was “N.I”, the “% growth inhibition P. batsensis” value (P. batsensis [2]; 1.95 µg/mL) was “N.I” and the “% growth inhibition P. batsensis” value (P. batsensis [2]; 3.91 µg/mL) was “N.I”. The inhibition at 7.81 µg/mL (P. batsensis [2]; Pseudooceanicola batsensis, 7.81 µg/mL) was 47.4 ± 0.3%, the inhibition at 15.6 µg/mL (P. batsensis [2]; Pseudooceanicola batsensis, 15.60 µg/mL) was 62.7 ± 0.6% and the inhibition at 31.25 µg/mL (P. batsensis [2]; Pseudooceanicola batsensis, 31.25 µg/mL) was 53.9 ± 0.3%. The “% growth inhibition C. marina” value (C. marina [3]; 0.98 µg/mL) was “N.I”, the “% growth inhibition C. marina” value (C. marina [3]; 1.95 µg/mL) was “N.I” and the inhibition at 3.91 µg/mL (C. marina [3]; Cobetia marina, 3.91 µg/mL) was 5.5 ± 0.8%. For the same compound, the inhibition at 7.81 µg/mL (C. marina [3]; Cobetia marina, 7.81 µg/mL) was 18.2 ± 0.7%, the inhibition at 15.6 µg/mL (C. marina [3]; Cobetia marina, 15.60 µg/mL) was 15.3 ± 0.7% and the inhibition at 31.25 µg/mL (C. marina [3]; Cobetia marina, 31.25 µg/mL) was 19.8 ± 0.6%. For the same compound, the inhibition at 0.98 µg/mL (P. batsensis [4]; 0.98 µg/mL, read-out: % inhibition of biofilm formation P. batsensis) was 4.3 ± 4.3%, the inhibition at 1.95 µg/mL (P. batsensis [4]; 1.95 µg/mL, read-out: % inhibition of biofilm formation P. batsensis) was 17.7 ± 0.8% and the inhibition at 3.91 µg/mL (P. batsensis [4]; 3.91 µg/mL, read-out: % inhibition of biofilm formation P. batsensis) was 38.1 ± 0.6%. For the same compound, the inhibition at 7.81 µg/mL (P. batsensis [4]; 7.81 µg/mL, read-out: % inhibition of biofilm formation P. batsensis) was 28.4 ± 2.8%, the inhibition at 15.6 µg/mL (P. batsensis [4]; 15.6 µg/mL, read-out: % inhibition of biofilm formation P. batsensis) was 86.9 ± 1% and the inhibition at 31.25 µg/mL (P. batsensis [4]; 31.25 µg/mL, read-out: % Biofilm Inhibition ± SEM P. batsensis) was 87.2 ± 0.1%. It also gave an inhibition at 0.98 µg/mL (M. luteus; Micrococcus luteus, 0.98 µg/mL, read-out: % inhibition of biofilm formation M. luteus) of 59 ± 7.4%, an inhibition at 1.95 µg/mL (M. luteus; Micrococcus luteus, 1.95 µg/mL, read-out: % inhibition of biofilm formation M. luteus) of 90.3 ± 3.8% and an inhibition at 3.91 µg/mL (M. luteus; Micrococcus luteus, 3.91 µg/mL, read-out: % inhibition of biofilm formation M. luteus) of 95.8 ± 2.9%. It also gave an inhibition at 7.81 µg/mL (M. luteus; Micrococcus luteus, 7.81 µg/mL, read-out: % inhibition of biofilm formation M. luteus) of 96.7 ± 0.5%, an inhibition at 15.6 µg/mL (M. luteus; Micrococcus luteus, 15.6 µg/mL, read-out: % inhibition of biofilm formation M. luteus) of 95.4 ± 0.9% and an inhibition at 31.25 µg/mL (M. luteus; Micrococcus luteus, 31.25 µg/mL, read-out: % Biofilm Inhibition ± SEM M. luteus) of 88.6 ± 2.9%. For the same compound, the “% inhibition of biofilm formation M. luteus” value (M. luteus; concentrations higher than 1.95 µg/mL) was over 90%.
